target: Polθ theta (1-899) (hPolQ) (Homo sapiens (Human), UniProt O75417); assay: Biological Assay 1: Polθ ATPase activity, NADH oxidation-coupled enzymatic assay (10 nM enzyme, 30 min); assay type: biochemical; conditions: Polθ (1-899) 10 nM, 100 μM ATP, 300 nM dT50 ssDNA; Examples 1 to 268; read-out: ATPase NADH coupling:Standard Screening:hPolQ IC50
Procedure: The ability of the compounds of Formula (I), (II), (III), (IV), or Table 1 (Examples 1 to Example 268) to inhibit ATPase activity of Polθ theta (1-899) was determined using the assay described below.
Polθ Theta ATPase activity was determined by measuring the rate of ATP turn over in a NADH oxidation-coupled enzymatic assay. 10-point dilution series of compounds were used in a 384 well format for the inhibition assays. Polθ theta (1-899) (10 nM) in assay buffer (20 mM Tris HCl (pH 7.80), 80 mM KCl, 10 mM MgCl2, 1 mM DTT, 0.01% BSA, 0.01% Tween, 5% glycerol) was transferred to the test wells (20 μL), except the low control wells (20 μL of assay buffer was added to the low control wells). The plate was then incubated at room temperature for 15 min. An equal volume (20 μL) of 100 μM ATP, 300 nM dT50 (single-stranded DNA (ssDNA) containing 50 thymine bases), 300 μM NADH, 6 mM PEP, 10 U/mL lactate dehydrogenase and U/mL pyruvate kinase in assay buffer was added to all the test wells. The plate was then centrifuged at 1000 rpm for 1 min. The reaction was monitored for 30 min by measuring absorbance (λ=340 nm) in a Tecan Spark multimode plate reader every minute. The high control (DMSO with enzyme) with low absorbance intensity represents no inhibition of ATPase reaction while the low control (DMSO with buffer) with high absorbance intensity represents full inhibition of ATPase activity. Slope of the reaction progress curves were used to calculate the rate of ATP hydrolysis. The rates were used to determine the percent inhibition using a four-parameter inhibition model to generate IC50, Hill slope and max inhibition.

Polθ theta (1-899) (hPolQ), sequence (O75417 1-899): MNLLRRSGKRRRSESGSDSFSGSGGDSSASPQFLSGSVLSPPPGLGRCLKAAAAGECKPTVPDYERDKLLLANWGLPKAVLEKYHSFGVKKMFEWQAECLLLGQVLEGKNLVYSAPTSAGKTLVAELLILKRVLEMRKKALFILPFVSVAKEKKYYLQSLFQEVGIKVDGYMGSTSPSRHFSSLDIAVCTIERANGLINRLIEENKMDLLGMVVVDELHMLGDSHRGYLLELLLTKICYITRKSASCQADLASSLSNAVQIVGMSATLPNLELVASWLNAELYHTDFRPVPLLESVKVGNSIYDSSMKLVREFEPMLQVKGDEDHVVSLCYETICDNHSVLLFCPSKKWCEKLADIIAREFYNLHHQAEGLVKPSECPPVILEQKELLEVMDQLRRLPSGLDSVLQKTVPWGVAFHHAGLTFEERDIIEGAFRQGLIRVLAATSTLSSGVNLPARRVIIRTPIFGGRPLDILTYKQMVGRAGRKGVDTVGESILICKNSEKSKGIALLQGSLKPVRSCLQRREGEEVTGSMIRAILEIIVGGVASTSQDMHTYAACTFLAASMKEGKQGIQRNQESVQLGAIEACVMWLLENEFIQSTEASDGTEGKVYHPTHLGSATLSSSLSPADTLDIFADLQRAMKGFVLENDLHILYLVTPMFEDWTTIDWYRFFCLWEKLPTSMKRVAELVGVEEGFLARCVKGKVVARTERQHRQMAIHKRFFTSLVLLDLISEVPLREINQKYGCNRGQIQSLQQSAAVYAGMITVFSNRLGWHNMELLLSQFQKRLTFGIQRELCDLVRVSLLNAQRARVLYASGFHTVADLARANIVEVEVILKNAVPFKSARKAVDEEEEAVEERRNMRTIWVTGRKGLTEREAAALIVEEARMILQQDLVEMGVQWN

SMILES	IC50
COc1cccc(F)c1-c1cc(C)ncc1C(=O)Nc1nnc(OCc2cnc([C@@H](C)O)cn2)s1 [Example 111, 4-(2-fluoro-6-methoxyphenyl)-N-(5-((5-((R)-1-hydroxyethyl)pyrazin-2-yl)methoxy)-1,3,4-thiadiazol-2-yl)-6-methylnicotinamide]	≤ 200 nM
Cc1cc(-c2c(F)cccc2OC(F)F)c(C(=O)Nc2nnc(OCc3ccc4c(n3)OCCO4)s2)cn1 [Example 47, 4-(2-(difluoromethoxy)-6-fluorophenyl)-N-(5-((2,3-dihydro-(1,4)dioxino(2,3-b)pyridin-6-yl)methoxy)-1,3,4-thiadiazol-2-yl)-6-methylnicotinamide]	≤ 200 nM
COc1cnc(Cl)cc1-c1cc(C)ncc1C(=O)Nc1nnc(OC[C@@]2(C)CCOC2)s1 (single isomer, unassigned) [Example 161]	≤ 200 nM
COc1cnc(Cl)cc1-c1cc(C)ncc1C(=O)Nc1nnc(OCc2ccc(C(C)(C)C#N)cn2)s1 [Example 84, 2′-chloro-N-(5-((5-(2-cyanopropan-2-yl)pyridin-2-yl)methoxy)-1,3,4-thiadiazol-2-yl)-5′-methoxy-6-methyl-(4,4′-bipyridine)-3-carboxamide]	≤ 200 nM
COc1cnc(Cl)cc1-c1cc(C)ncc1C(=O)Nc1nnc(OC[C@H]2CC[C@H](OC)CC2)s1 [Example 137, 2′-chloro-5′-methoxy-N-(5-(((1r,4r)-4-methoxycyclohexyl)methoxy)-1,3,4-thiadiazol-2-yl)-6-methyl-[4,4′-bipyridine]-3-carboxamide]	≤ 200 nM
COc1cnc(Cl)cc1-c1cc(C)ncc1C(=O)Nc1nnc(OCc2ccc(CO)cn2)s1 [Example 60, 2′-chloro-N-(5-((5-(hydroxymethyl)pyridin-2-yl)methoxy)-1,3,4-thiadiazol-2-yl)-5′-methoxy-6-methyl-[4,4′-bipyridine]-3-carboxamide]	≤ 200 nM
Cc1cc(-c2c(F)cccc2OC(F)F)c(C(=O)Nc2nnc(OCc3ccc([C@@H](C)O)cn3)s2)cn1 [Example 57, 4-(2-(difluoromethoxy)-6-fluorophenyl)-N-(5-((5-((R)-1-hydroxyethyl)pyridin-2-yl)methoxy)-1,3,4-thiadiazol-2-yl)-6-methylnicotinamide]	≤ 200 nM
COc1cccc(F)c1-c1cc2ncn(C)c2cc1C(=O)Nc1nnc(OC[C@H]2CC[C@H](O)CC2)s1 [Example 200, 5-(2-fluoro-6-methoxyphenyl)-N-(5-(((1r,4r)-4-hydroxycyclohexyl)methoxy)-1,3,4-thiadiazol-2-yl)-1-methyl-1H-benzo(d)imidazole-6-carboxamide]	200 to 500 nM
COc1cccc(F)c1-c1cn2ncc(C)c2cc1C(=O)Nc1nnc(OC[C@H]2CC[C@H](O)CC2)s1 [Example 194, 6-(2-fluoro-6-methoxyphenyl)-N-(5-(((1r,4r)-4-hydroxycyclohexyl)methoxy)-1,3,4-thiadiazol-2-yl)-3-methylpyrazolo(1,5-a)pyridine-5-carboxamide]	1000 to 10000 nM
COc1ccccc1-c1cc(C)ncc1C(=O)Nc1nnc(O[C@H](CO)c2ccc(Cl)cn2)s1 [Example 30, (S)—N-(5-(1-(5-chloropyridin-2-yl)-2-hydroxyethoxy)-1,3,4-thiadiazol-2-yl)-4-(2-methoxyphenyl)-6-methylnicotinamide]	500 to 1000 nM
COc1cnc(C)cc1-c1cc(C)ncc1C(=O)Nc1nnc(OCc2ccc(OC(C)C)cn2)s1 [Example 74, N-(5-((5-isopropoxypyridin-2-yl)methoxy)-1,3,4-thiadiazol-2-yl)-5′-methoxy-2′,6-dimethyl-(4,4′-bipyridine)-3-carboxamide]	≤ 200 nM
COc1cnc(Cl)cc1-c1cc(C)ncc1C(=O)Nc1nnc(OC[C@H]2COCC(C)(C)O2)s1 (single isomer, unassigned) [Example 221]	≤ 200 nM
COc1cnc(Br)cc1-c1cc(C)ncc1C(=O)Nc1nnc(OC[C@@H]2CCOC2)s1 (single isomer, unassigned) [Example 245]	≤ 200 nM
COc1cnc(Br)cc1-c1cc(C)ncc1C(=O)Nc1nnc(OC[C@@H]2COCCO2)s1 [Example 235, (S)—N-(5-((1,4-dioxan-2-yl)methoxy)-1,3,4-thiadiazol-2-yl)-2′-bromo-5′-methoxy-6-methyl-(4,4′-bipyridine)-3-carboxamide]	≤ 200 nM
COc1cnc(Cl)cc1-c1cc(C)ncc1C(=O)Nc1nnc(OC[C@@H]2CO[C@@H](CO)CO2)s1 (racemic) [Example 238, rel-2′-chloro-N-(5-(((2s,5s)-5-(hydroxymethyl)-1,4-dioxan-2-yl)methoxy)-1,3,4-thiadiazol-2-yl)-5′-methoxy-6-methyl-(4,4′-bipyridine)-3-carboxamide]	≤ 200 nM
COc1cnc(Cl)cc1-c1cc(C)ncc1C(=O)Nc1nnc(OCC2CCOC2)s1 (stereo in doubt) [Example 171, (S)-2′-chloro-5′-methoxy-6-methyl-N-(5-((tetrahydrofuran-3-yl)methoxy)-1,3,4-thiadiazol-2-yl)-(4,4′-bipyridine)-3-carboxamide]	≤ 200 nM
COc1cccc(F)c1-c1cc(C)ncc1C(=O)Nc1nnc(OCC2CCS(=O)(=O)CC2)s1 [Example 158, N-(5-((1,1-dioxidotetrahydro-2H-thiopyran-4-yl)methoxy)-1,3,4-thiadiazol-2-yl)-4-(2-fluoro-6-methoxyphenyl)-6-methylnicotinamide]	≤ 200 nM
COc1cnc(Cl)c(F)c1-c1cc(C)ncc1C(=O)Nc1nnc(OCC2CCOC2)s1 (stereo in doubt) [Example 184, 2′-chloro-3′-fluoro-5′-methoxy-6-methyl-N-(5-(((S)-tetrahydrofuran-3-yl)methoxy)-1,3,4-thiadiazol-2-yl)-(4,4′-bipyridine)-3-carboxamide]	≤ 200 nM
COc1cnc(Cl)cc1-c1cc(C)ncc1C(=O)Nc1nnc(OC[C@H]2CC[C@@H](O)CC2)s1 [Example 128, 2′-chloro-N-(5-(((1s,4s)-4-hydroxycyclohexyl)methoxy)-1,3,4-thiadiazol-2-yl)-5′-methoxy-6-methyl-[4,4′-bipyridine]-3-carboxamide]	≤ 200 nM
COc1ccccc1-c1cc(C)ncc1C(=O)Nc1nnc(O[C@@H](CO)c2ccc(Cl)cn2)s1 [Example 29, (R)—N-(5-(1-(5-chloropyridin-2-yl)-2-hydroxyethoxy)-1,3,4-thiadiazol-2-yl)-4-(2-methoxyphenyl)-6-methylnicotinamide]	1000 to 10000 nM
COc1cnc(Cl)cc1-c1cc(C)ncc1C(=O)Nc1nnc(OCC2CCC(F)(F)CC2)s1 [Example 153, 2′-chloro-N-(5-((4,4-difluorocyclohexyl)methoxy)-1,3,4-thiadiazol-2-yl)-5′-methoxy-6-methyl-(4,4′-bipyridine)-3-carboxamide]	≤ 200 nM
COc1cnc(Cl)cc1-c1cc(C)ncc1C(=O)Nc1nnc(OC[C@H]2COC[C@H]2C)s1 (single isomer, unassigned) [Example 267]	≤ 200 nM
CN=[S@@](C)(=O)c1ccc(COc2nnc(NC(=O)c3cnc(C)cc3-c3c(F)cccc3OC)s2)cc1 [Example 155, N-(5-((4-((S)—N,S-dimethylsulfonimidoyl)benzyl)oxy)-1,3,4-thiadiazol-2-yl)-4-(2-fluoro-6-methoxyphenyl)-6-methylnicotinamide]	≤ 200 nM
COc1c(-c2cc(C)ncc2C(=O)Nc2nnc(OCc3ccc(Cl)cn3)s2)ccnc1Cl [Example 77, 2′-chloro-N-(5-((5-chloropyridin-2-yl)methoxy)-1,3,4-thiadiazol-2-yl)-3′-methoxy-6-methyl-(4,4′-bipyridine)-3-carboxamide]	≤ 200 nM
COc1cnc(Cl)c(F)c1-c1cc(C)ncc1C(=O)Nc1nnc(OC[C@H]2CC[C@H](O)CC2)s1 [Example 248, 2′-chloro-3′-fluoro-N-(5-(((1r,4r)-4-hydroxycyclohexyl)methoxy)-1,3,4-thiadiazol-2-yl)-5′-methoxy-6-methyl-(4,4′-bipyridine)-3-carboxamide]	≤ 200 nM
COc1ccccc1-c1cnccc1C(=O)Nc1nnc(OCC2CCCc3[nH]ncc32)s1 (stereo not shown) [compound 3, 3-(2-methoxyphenyl)-N-(5-(4,5,6,7-tetrahydro-1H-indazol-4-ylmethoxy)-1,3,4-thiadiazol-2-yl)pyridine-4-carboxamide]	≤ 200 nM
COc1cccc(F)c1-c1cn2ncc(F)c2cc1C(=O)Nc1nnc(OC[C@H]2CC[C@H](O)CC2)s1 [Example 201, 3-fluoro-6-(2-fluoro-6-methoxyphenyl)-N-(5-(((1r,4r)-4-hydroxycyclohexyl)methoxy)-1,3,4-thiadiazol-2-yl)pyrazolo(1,5-a)pyridine-5-carboxamide]	≤ 200 nM
COc1cnc(C)c(F)c1-c1cc(C)ncc1C(=O)Nc1nnc(OC[C@H]2COCCO2)s1 [Example 242, N-(5-(((R)-1,4-dioxan-2-yl)methoxy)-1,3,4-thiadiazol-2-yl)-3′-fluoro-5′-methoxy-2′,6-dimethyl-(4,4′-bipyridine)-3-carboxamide]	≤ 200 nM

Reference: patent publication US20250325552A1, “SUBSTITUTED THIADIAZOLYL DERIVATIVES AS DNA POLYMERASE THETA INHIBITORS” (IDEAYA Biosciences, Inc., priority 2020, published 2025)
